For assay [1], the target named is T1, IRAK4 (Homo sapiens, UniProt Q9NWZ3).
T1 construct: endogenous in cells; host or cells: Karpas299
T1 sequence (Q9NWZ3 1-460): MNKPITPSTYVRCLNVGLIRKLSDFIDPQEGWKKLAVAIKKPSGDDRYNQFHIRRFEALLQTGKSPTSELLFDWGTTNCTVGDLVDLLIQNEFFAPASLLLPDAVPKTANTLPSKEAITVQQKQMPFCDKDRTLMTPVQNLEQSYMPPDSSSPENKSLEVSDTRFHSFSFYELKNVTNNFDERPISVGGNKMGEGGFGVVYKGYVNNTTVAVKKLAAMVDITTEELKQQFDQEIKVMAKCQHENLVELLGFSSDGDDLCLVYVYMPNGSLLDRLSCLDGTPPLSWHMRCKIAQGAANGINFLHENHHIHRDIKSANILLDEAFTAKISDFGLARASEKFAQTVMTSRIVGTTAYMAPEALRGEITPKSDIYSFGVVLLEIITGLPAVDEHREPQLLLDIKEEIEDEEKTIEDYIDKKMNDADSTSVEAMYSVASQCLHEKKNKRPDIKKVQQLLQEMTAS
The experiment in a line: IRAK4 Degradation Assay (Karpas299, HTRF/TR-FRET). Format: cell-based. To be noted: Karpas-299 cells, 24 h treatment; for Dmax: maximum percentage of degradation, read-out: IRAK4 in Karpas-299 (24 h) Dmax (%); for DC50: read-out: IRAK4 in Karpas-299 (24 h) DC50. The method, boiled down: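 Karpas299 cells at 0.2 million per well were exposed to serially diluted compounds for 24 h or 5 h, then lysed. IRAK4 remaining in lysates was quantified by HTRF (665/620 nm) after overnight antibody incubation at room temperature. Percent degradation was fitted to a four-parameter curve to give IC50 (DC50).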

The target of assay [2] is T1, IRAK4. In words: IRAK4 Degradation Assay with Human Serum (Karpas299, HTRF/TR-FRET). The format is cell-based. To be noted: Karpas-299 in human serum, 24 hrs treatment; for DC50: read-out: IRAK4 degradtion with human serum assay DC50; for Dmax: read-out: IRAK4 degradtion with human serum assay Dmax (%). In short, it runs like this:
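Karpas299 cells in human AB serum (0.2 million/well) treated with serial compound dilutions for 24 h. After lysis, IRAK4 quantified by HTRF (overnight antibody incubation at room temperature, 665/620 nm read). Degradation percentage fitted to four-parameter curve to give DC50.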
In general terms: TR-FRET usually uses a lanthanide donor and a delayed reading to cut background.

On to `C[C@@H]1CN([C@H]2C[C@@H](c3cc(F)c([C@H]4CCC(=O)NC4=O)c(F)c3)C2)CCN1[C@H]1CC[C@H](n2cc3cc(NC(=O)c4ccc5cc(C#N)cnn45)c(C(C)(C)O)cc3n2)CC1` [Example 365, 3-cyano-N-(2-((1R,4r)-4-((R)-4-((1S,3S)-3-(4-((R)-2,6-dioxopipendin-3-yl)-3,5-difluorophenyl)cyclobutyl)-2-methylpiperazin-1-yl)cyclohexyl)-6-(2-hydroxypropan-2-yl)-2H-indazol-5-yl)pyrrolo[1,2-b]pyridazine-7-carboxamide], for which, at IRAK4 [1], the Dmax (commonly the greatest extent of degradation seen) was determined as 93% and the 50% degradation concentration (DC50) (as a rule, the midpoint of the concentration-degradation curve) was found to be 1.1 nM. At IRAK4 [2], the DC50 amounted to 7.7 nM and the Dmax stood at 93%.

On to `COC[C@@H]1CN(C2CCN(c3cc(F)c([C@H]4CCC(=O)NC4=O)c(F)c3)CC2)CCN1[C@H]1CC[C@H](n2cc3cc(NC(=O)c4ccc5cc(C#N)cnn45)c(C(C)(C)O)cc3n2)CC1` [Example 328, 3-cyano-N-(2-((1S,4r)-4-((S)-4-(1-(4-((R)-2,6-dioxopiperidin-3-yl)-3,5-difluorophenyl)piperidin-4-yl)-2-(methoxymethyl)piperazin-1-yl)cyclohexyl)-6-(2-hydroxypropan-2-yl)-2H-indazol-5-yl)pyrrolo[1,2-b]pyridazine-7-carboxamide], for which, at IRAK4 [1], the Dmax came out at 98% and the DC50 amounted to 0.8 nM. Besides, on IRAK4 [2], the DC50 is 19 nM and the Dmax came to 101%.

Consider `CC(C)(O)c1cc2nn([C@H]3CC[C@H](N4CCN(C(=O)C5CN(c6ccc(N7CCC(=O)NC7=O)cc6)C5)CC4)CC3)cc2cc1NC(=O)c1ccc2cc(C#N)cnn12` [Example 265, 3-cyano-N-(2-((1r,4r)-4-(4-(1-(4-(2,4-dioxotetrahydropyrimidin-1(2H)-yl)phenyl)azetidine-3-carbonyl)piperazin-1-yl)cyclohexyl)-6-(2-hydroxypropan-2-yl)-2H-indazol-5-yl)pyrrolo[1,2-b]pyridazine-7-carboxamide], for which, at IRAK4 [1], the Dmax came to 97% and the half-maximal degradation concentration (DC50) worked out at 2.6 nM. Further, on IRAK4 [2], the half-maximal degradation concentration (DC50) was found to be 21 nM and the Dmax worked out at 99%.

As to `CC(C)(O)c1cc2nn([C@H]3CC[C@H](N4CCN(CCCc5cc(F)c([C@H]6CCC(=O)NC6=O)c(F)c5)CC4)CC3)cc2cc1NC(=O)c1ccc2cc(C#N)cnn12` [Example 357, 3-cyano-N-(2-((1R,4r)-4-(4-(3-(4-((R)-2,6-dioxopiperidin-3-yl)-3,5-difluorophenyl)propyl)piperazin-1-yl)cyclohexyl)-6-(2-hydroxypropan-2-yl)-2H-indazol-5-yl)pyrrolo[1,2-b]pyridazine-7-carboxamide], at IRAK4 [1], the Dmax was 97% and the DC50 was determined as 1.1 nM. Moreover, at IRAK4 [2], the DC50 was 12 nM and the Dmax stood at 97%.

For the compound `CC(C)(O)c1cc2nn([C@H]3CC[C@H](N4CCN(C(=O)C5CN(c6cnc(C7CCC(=O)NC7=O)c(F)c6)C5)CC4)CC3)cc2cc1NC(=O)c1ccc2cc(C#N)cnn12` (stereo partly shown) [Example 187, 3-cyano-N-(2-((1r,4r)-4-(4-(1-(6-(2,6-dioxopiperidin-3-yl)-5-fluoropyridin-3-yl)azetidine-3-carbonyl)piperazin-1-yl)cyclohexyl)-6-(2-hydroxypropan-2-yl)-2H-indazol-5-yl)pyrrolo[1,2-b]pyridazine-7-carboxamide], the Dmax at IRAK4 [1] turned out to be 96%; at IRAK4 [2] it was 98%. Moreover, the half-maximal degradation concentration (DC50) on IRAK4 [1] was 0.6 nM; on IRAK4 [2], 11 nM.

In the case of `COC[C@@H]1CN([C@H]2CC[C@H](n3cc4cc(NC(=O)c5ccc6cc(C#N)cnn56)c(C(C)(C)O)cc4n3)CC2)CCN1C1CCN(c2ccc(C3CCC(=O)NC3=O)nc2C)CC1` (stereo partly drawn) [Example 418, 3-cyano-N-(2-((1S,4r)-4-((3S)-4-(1-(6-(2,6-dioxopiperidin-3-yl)-2-methylpyridin-3-yl)piperidin-4-yl)-3-(methoxymethyl)piperazin-1-yl)cyclohexyl)-6-(2-hydroxypropan-2-yl)-2H-indazol-5-yl)pyrrolo[1,2-b]pyridazine-7-carboxamide], on IRAK4 [1], the Dmax worked out at 94% and the DC50 is 1.8 nM. On IRAK4 [2], the DC50 was 6.1 nM and the Dmax worked out at 100%.

With `CC(C)(O)c1cc2nn([C@H]3CC[C@H](C4CCN(CC5CN(c6cc(F)c([C@H]7CCC(=O)NC7=O)c(F)c6)C5)CC4)CC3)cc2cc1NC(=O)c1ccc2cc(C#N)cnn12` [Example 390, 3-cyano-N-(2-((1r,4r)-4-(1-((1-(4-((R)-2,6-dioxopiperidin-3-yl)-3,5-difluorophenyl)azetidin-3-yl)methyl)piperidin-4-yl)cyclohexyl)-6-(2-hydroxypropan-2-yl)-2H-indazol-5-yl)pyrrolo[1,2-b]pyridazine-7-carboxamide], on IRAK4 [1], the Dmax is 99% and the DC50 was 2 nM. Also, on IRAK4 [2], the DC50 stood at 24 nM and the Dmax came to 99%.

For `Cc1nc(C2CCC(=O)NC2=O)ccc1N1CCC(N2CCC3(CCC(n4cc5cc(NC(=O)c6ccc7cc(C#N)cnn67)c(C(C)(C)O)cc5n4)CC3)CC2)CC1` (stereo not shown) [Example 427, 3-cyano-N-(2-(3-(1-(6-(2,6-dioxopiperidin-3-yl)-2-methylpyridin-3-yl)piperidin-4-yl)-3-azaspiro[5.5]undecan-9-yl)-6-(2-hydroxypropan-2-yl)-2H-indazol-5-yl)pyrrolo[1,2-b]pyridazine-7-carboxamide], the Dmax was found to be 96% on IRAK4 [1] and 94% at IRAK4 [2]. Also, the DC50 on IRAK4 [1] was determined as 2.9 nM; at IRAK4 [2], 8.4 nM.

For the compound `COC[C@H]1CN([C@H]2CC[C@H](n3cc4cc(NC(=O)c5ccc6cc(C#N)cnn56)c(C(C)(C)O)cc4n3)CC2)CCN1C1CCN(c2ccc(C3CCC(=O)NC3=O)nc2C)CC1` (stereo partly drawn) [Example 422, 3-cyano-N-(2-((1R,4r)-4-((3R)-4-(1-(6-(2,6-dioxopiperidin-3-yl)-2-methylpyridin-3-yl)piperidin-4-yl)-3-(methoxymethyl)piperazin-1-yl)cyclohexyl)-6-(2-hydroxypropan-2-yl)-2H-indazol-5-yl)pyrrolo[1,2-b]pyridazine-7-carboxamide], the Dmax at IRAK4 [1] and on IRAK4 [2] was 97% in each case. In addition, the values for the DC50 on IRAK4 [1] and at IRAK4 [2] were 2.1 nM and 5.2 nM, respectively.

As to `COc1cc2nn([C@H]3CC[C@H](N4CCN(C(=O)C5CN(c6cc(F)c([C@H]7CCC(=O)NC7=O)c(F)c6)C5)CC4)CC3)cc2cc1C(=O)Nc1cnn2cccnc12` [Example 344, 2-((1r,4r)-4-(4-(1-(4-((R)-2,6-dioxopiperidin-3-yl)-3,5-difluorophenyl)azetidine-3-carbonyl)piperazin-1-yl)cyclohexyl)-6-methoxy-N-(pyrazolo[1,5-a]pyrimidin-3-yl)-2H-indazole-5-carboxamide], the figures for the Dmax on IRAK4 [1] and on IRAK4 [2] were 98% and 100%, respectively. Moreover, the DC50 on IRAK4 [1] came to 0.24 nM; at IRAK4 [2], 2.7 nM.

In the case of `CC(C)(O)c1cc2nn([C@H]3CC[C@H](N4CCN([C@@H]5CCN(c6ccc(N7CCC(=O)NC7=O)cc6)C5)CC4)CC3)cc2cc1NC(=O)c1ccc2cc(C#N)cnn12` [Example 294, 3-cyano-N-(2-((1R,4r)-4-(4-((R)-1-(4-(2,4-dioxotetrahydropyrimidin-1(2H)-yl)phenyl)pyrrolidin-3-yl)piperazin-1-yl)cyclohexyl)-6-(2-hydroxypropan-2-yl)-2H-indazol-5-yl)pyrrolo[1,2-b]pyridazine-7-carboxamide], the results for the Dmax at IRAK4 [1] and at IRAK4 [2] were 97% and 98%, respectively. In addition, the DC50 at IRAK4 [1] came out at 3.4 nM; at IRAK4 [2], 14 nM.

Take `C[C@H]1CN(C2CN(c3cc(F)c([C@H]4CCC(=O)NC4=O)c(F)c3)C2)CCN1[C@H]1CC[C@H](n2cc3cc(NC(=O)c4ccc5cc(C#N)cnn45)c(C(C)(C)O)cc3n2)CC1` [Example 308, 3-cyano-N-(2-((1S,4r)-4-((S)-4-(1-(4-((R)-2,6-dioxopiperidin-3-yl)-3,5-difluorophenyl)azetidin-3-yl)-2-methylpiperazin-1-yl)cyclohexyl)-6-(2-hydroxypropan-2-yl)-2H-indazol-5-yl)pyrrolo[1,2-b]pyridazine-7-carboxamide]: on IRAK4 [1], the Dmax was determined as 97% and the DC50 was determined as 1.5 nM. Besides, on IRAK4 [2], the DC50 was 8.9 nM and the Dmax is 99%.

Turning to `C[C@@H]1CN([C@H]2CC[C@H](n3cc4cc(NC(=O)c5ccc6cc(C#N)cnn56)c(C(C)(C)O)cc4n3)CC2)CCN1CC1CN(c2cc(F)c([C@H]3CCC(=O)NC3=O)c(F)c2)C1` [Example 310, 3-cyano-N-(2-((1R,4r)-4-((R)-4-((1-(4-((R)-2,6-dioxopiperidin-3-yl)-3,5-difluorophenyl)azetidin-3-yl)methyl)-3-methylpiperazin-1-yl)cyclohexyl)-6-(2-hydroxypropan-2-yl)-2H-indazol-5-yl)pyrrolo[1,2-b]pyridazine-7-carboxamide], at IRAK4 [1], the Dmax came to 98% and the DC50 worked out at 0.6 nM. In addition, on IRAK4 [2], the half-maximal degradation concentration (DC50) was 3.2 nM and the Dmax stood at 102%.

For the origin of these results see US20250195513A1, “DEGRADATION OF IRAK4 BY CONJUGATION OF IRAK4 INHIBITORS WITH E3 LIGASE LIGAND AND METHODS OF USE” (BeiGene, Ltd., priority 2022, published 2025).
